# Data as given in ChEMBL document CHEMBL5543114, “Chimeric NOD2 Mincle Agonists as Vaccine Adjuvants” (J Med Chem, 2024).
# Active and inactive are the calls of the source. The rule behind the calls is not given here.
# Assays:
# [1] = system: BMDM; test: Induction of MIP-2 production in C57BL/6 mouse BMDM cells at 1 nmol per well incubated for 24 hrs by ELISA; assay type: functional, cell-based
# [2] = system: BMDM; test: Induction of IL-6 production in C57BL/6 mouse BMDM cells at 1 nmol per well incubated for 24 hrs by ELISA; assay type: functional, cell-based
# [3] = system: BMDM; test: Induction of IL-1beta production in C57BL/6 mouse BMDM cells at 1 nmol per well incubated for 24 hrs by ELISA; assay type: functional, cell-based
# [4] = system: BMDM; test: Induction of IL-23 production in C57BL/6 mouse BMDM at 1 nmol incubated for 48 hrs by ELISA; assay type: functional, cell-based
# [5] = system: BMDM; test: Induction of IL-1beta production in C57BL/6 mouse BMDM at 1 nmol incubated for 48 hrs by ELISA; assay type: functional, cell-based
# [6] = species: Mus musculus; test: Adjuvanticity in ovalbumin immunized C57BL/6 mouse assessed as increase in anti-OVA IgG titers at 40 nmol boosted with OVA at 1 week and measured after week 3, 4, 5 by ELISA; assay type: functional, organism-based; settings: time 5.0 weeks
# [7] = system: BMDM; test: Induction of IL-6 production in C57BL/6 mouse BMDM at 1 nmol incubated for 48 hrs by ELISA; assay type: functional, cell-based
# [8] = system: 2B4; test: Induction of NFAT-GFP signal in mouse 2B4 reporter cells expressing mMincle + FcRgamma at 0.1 to 1 nmol incubated for 18 hrs by flow cytometry analysis; assay type: functional, cell-based; settings: dose 0.1-1 nmol
# [9] = Toxicity in ovalbumin immunized C57BL/6 mouse assessed as appearance of inflamed skin at tail base at 40 nmol measured after 1 week post immunization; assay type: tissue-based; settings: in vivo, 168 h, time 1 weeks
# [10] = Toxicity in ovalbumin immunized C57BL/6 mouse assessed as body weight loss at 40 nmol boosted with OVA at 1 week and measured after week 3, 4, 5 and 6; settings: in vivo, 1008 h, time 6 weeks
# [11] = system: HEK293; test: Induction of IL-8 production in HEK293 cells expressing mouse NOD2 at 5 to 50 uM incubated for 20 hrs by ELISA; assay type: functional, cell-based; settings: Homo sapiens, dose 5-50 µM
# [12] = system: Splenocyte; test: Improvement in memory response in ovalbumin immunized C57BL/6 mouse splenocytes assessed as increase in IFNgamma level incubated for 72 hrs by ELISA; assay type: functional, cell-based
# [13] = system: HEK293; test: Induction of IL-8 production in HEK293 cells expressing mouse NOD2 at 5 to 50 uM incubated for 20 hrs in presence of 10 to 100 uM (4R)-4-[[(2S)-2-[[(2R)-2-[(3R,4R,5S,6R)-3-acetamido-2,5-dihydroxy-6-(hydroxymethyl)tetrahydropyran-4-yl]oxypropanoyl]amino]propanoyl]amino]-5-amino-5-oxo-pentanoic acid by ELISA; assay type: functional, cell-based; settings: Homo sapiens, dose 5-50 µM
# [14] = system: BMDM; test: (§1) Induction of IL-23 production in C57BL/6 mouse BMDM cells at 1 nmol per well incubated for 48 hrs in presence of 2ug/ml (4R)-4-[[(2S)-2-[[(2R)-2-[(3R,4R,5S,6R)-3-acetamido-2,5-dihydroxy-6-(hydroxymethyl)tetrahydropyran-4-yl]oxypropanoyl]amino]propanoyl]amino]-5-amino-5-oxo-pentanoic acid by ELISA; assay type: functional, cell-based
# [15] = system: BMDM; test: Induction of IL-23 production in C57BL/6 mouse BMDM cells at 1 nmol per well incubated for 48 hrs in presence of 2.5 ug/ml (2R,6S)-2-amino-6-[[(4R)-4-amino-4-carboxy-butanoyl]amino]heptanedioic acid by ELISA; assay type: functional, cell-based
# [16] = system: Splenocyte; test: Improvement in memory response in ovalbumin immunized C57BL/6 mouse splenocytes assessed as increase in IFNgamma level incubated for 72 hrs in presence of (4R)-4-[[(2S)-2-[[(2R)-2-[(3R,4R,5S,6R)-3-acetamido-2,5-dihydroxy-6-(hydroxymethyl)tetrahydropyran-4-yl]oxypropanoyl]amino]propanoyl]amino]-5-amino-5-oxo-pentanoic acid by ELISA; assay type: functional, cell-based
# [17] = system: BMDM; test: as §1, with “IL-1beta” for “IL-23”, “2 ug/ml” for “2ug/ml”; assay type: functional, cell-based
# [18] = system: BMDM; test: Induction of IL-23 production in C57BL/6 mouse BMDM cells at 1 nmol per well incubated for 48 hrs in presence of 2 ug/ml murabutide by ELISA; assay type: functional, cell-based
# [19] = system: HEK293; test: Induction of IL-8 production in HEK293 cells expressing mouse NOD2 at 10 to 100 uM incubated for 20 hrs in presence of 5 to 50 uM 6,6'-Di-0-(2,4-bis(octadecyloxy)benzoyl)-alpha,alpha'-D-trehalose by ELISA; assay type: functional, cell-based; settings: Homo sapiens, dose 10-100 µM
# [20] = system: BMDM; test: Induction of IL-1beta production in C57BL/6 mouse BMDM cells at 2 ug/ml incubated for 48 hrs in presence of 1 nmol [(2R,3S,4S,5R,6R)-3,4,5-trihydroxy-6-[(3R,4S,5S,6R)-3,4,5-trihydroxy-6-[(4-octadecoxybenzoyl)oxymethyl]tetrahydropyran-2-yl]oxy-tetrahydropyran-2-yl]methyl 4-octadecoxybenzoate by ELISA; assay type: functional, cell-based; settings: dose 2.0 µg/ml
# [21] = system: Splenocyte; test: Improvement in memory response in ovalbumin immunized C57BL/6 mouse splenocytes assessed as increase in IFNgamma level incubated for 72 hrs in presence of [(2R,3S,4S,5R,6R)-3,4,5-trihydroxy-6-[(3R,4S,5S,6R)-3,4,5-trihydroxy-6-[(4-octadecoxybenzoyl)oxymethyl]tetrahydropyran-2-yl]oxy-tetrahydropyran-2-yl]methyl 4-octadecoxybenzoate by ELISA; assay type: functional, cell-based
# [22] = Toxicity in ovalbumin immunized C57BL/6 mouse assessed as reactogenicity boosted with OVA at 1 week and measured after week 3, 4, 5 and 6 in presence of 6,6'-Di-0-(2,4-bis(octadecyloxy)benzoyl)-alpha,alpha'-D-trehalose; settings: in vivo, 1008 h, time 6 weeks
# [23] = system: BMDM; test: Induction of IL-23 production in C57BL/6 mouse BMDM cells at 2 ug/ml incubated for 48 hrs in presence of 1 nmol [(2R,3S,4S,5R,6R)-3,4,5-trihydroxy-6-[(3R,4S,5S,6R)-3,4,5-trihydroxy-6-[(4-octadecoxybenzoyl)oxymethyl]tetrahydropyran-2-yl]oxy-tetrahydropyran-2-yl]methyl 4-octadecoxybenzoate by ELISA; assay type: functional, cell-based; settings: dose 2.0 µg/ml
# [24] = system: Splenocyte; test: Improvement in memory response in ovalbumin immunized C57BL/6 mouse splenocytes assessed as increase in IFNgamma level incubated for 72 hrs in presence of 6,6'-Di-0-(2,4-bis(octadecyloxy)benzoyl)-alpha,alpha'-D-trehalose by ELISA; assay type: functional, cell-based
# [25] = species: Mus musculus; test: Adjuvanticity in ovalbumin immunized C57BL/6 mouse assessed as increase in anti-OVA IgG titers boosted with OVA at 1 week and measured after week 3, 4, 5 and 6 in presence of 6,6'-Di-0-(2,4-bis(octadecyloxy)benzoyl)-alpha,alpha'-D-trehalose by ELISA; assay type: functional, organism-based; settings: time 6.0 weeks
# [26] = system: HEK293; test: Induction of IL-8 production in HEK293 cells expressing mouse NOD2 at 10 to 100 uM incubated for 20 hrs in presence of 5 to 50 uM [(2R,3S,4S,5R,6R)-3,4,5-trihydroxy-6-[(3R,4S,5S,6R)-3,4,5-trihydroxy-6-[(4-octadecoxybenzoyl)oxymethyl]tetrahydropyran-2-yl]oxy-tetrahydropyran-2-yl]methyl 4-octadecoxybenzoate by ELISA; assay type: functional, cell-based; settings: Homo sapiens, dose 10-100 µM
# [27] = Drug hydrolysis in water at pH 1 assessed as half life by HPLC-UV analysis; assay type: physicochemical
# [28] = Drug hydrolysis in water at pH 7 assessed as half life by HPLC-UV analysis; assay type: physicochemical; settings: buffer
# [29] = Drug hydrolysis in water at pH 4.4 assessed as half life by HPLC-UV analysis; assay type: physicochemical
# [30] = species: Mus musculus; test: Adjuvanticity in ovalbumin immunized C57BL/6 mouse assessed as increase in anti-OVA IgG titers at 40 nmol boosted with OVA at 1 week and measured after week 4, 5, 6 by ELISA; assay type: functional, organism-based; settings: time 6.0 weeks
# [31] = species: Mus musculus; test: Adjuvanticity in ovalbumin immunized C57BL/6 mouse assessed as increase in anti-OVA IgG titers boosted with OVA at 1 week and measured after week 3, 4, 5 and 6 in presence of (4R)-4-[[(2S)-2-[[(2R)-2-[(3R,4R,5S,6R)-3-acetamido-2,5-dihydroxy-6-(hydroxymethyl)tetrahydropyran-4-yl]oxypropanoyl]amino]propanoyl]amino]-5-amino-5-oxo-pentanoic acid by ELISA; assay type: functional, organism-based; settings: time 6.0 weeks
# [32] = Toxicity in ovalbumin immunized C57BL/6 mouse assessed as reactogenicity boosted with OVA at 1 week and measured after week 3, 4, 5 and 6 in presence of (4R)-4-[[(2S)-2-[[(2R)-2-[(3R,4R,5S,6R)-3-acetamido-2,5-dihydroxy-6-(hydroxymethyl)tetrahydropyran-4-yl]oxypropanoyl]amino]propanoyl]amino]-5-amino-5-oxo-pentanoic acid; settings: in vivo, 1008 h, time 6 weeks
# [33] = system: BMDM; test: Induction of IL-23 production in C57BL/6 mouse BMDM cells at 2.5 ug/ml incubated for 48 hrs in presence of 1 nmol [(2R,3S,4S,5R,6R)-3,4,5-trihydroxy-6-[(3R,4S,5S,6R)-3,4,5-trihydroxy-6-[(4-octadecoxybenzoyl)oxymethyl]tetrahydropyran-2-yl]oxy-tetrahydropyran-2-yl]methyl 4-octadecoxybenzoate by ELISA; assay type: functional, cell-based; settings: dose 2.5 µg/ml
compound,measurement,setting,value
CCCCCCCCCCCCCCCCCCOc1ccc(C(=O)OC[C@H]2O[C@H](O[C@H]3O[C@H](COC(=O)c4ccc(OCCCCCCCCCCCCCCCCCC)cc4OCc4cn(CCCN(OC)[C@@H]5O[C@H](CO)[C@@H](O)[C@H](O)[C@H]5NC(C)=O)nn4)[C@@H](O)[C@H](O)[C@H]3O)[C@H](O)[C@@H](O)[C@@H]2O)c(OCc2cn(CCCN(OC)[C@@H]3O[C@H](CO)[C@@H](O)[C@H](O)[C@H]3NC(C)=O)nn2)c1,Activity,[1],inactive
same,Activity,[2],inactive
same,Activity,[3],inactive
CCCCCCCCCCCCCCCCCCCOc1ccc(C(=O)OC[C@H]2O[C@H](O[C@H]3O[C@H](COC(=O)c4ccc(OCCCCCCCCCCCCCCCCCC)cc4OCCCCCCCCCCCCCCCCCc4cn(CCCCN(OC)[C@@H]5O[C@H](CO)[C@@H](O)[C@H](O[C@H](C)C(=O)N[C@@H](C)C(=O)N[C@H](CCC(=O)O)C(N)=O)[C@H]5NC(C)=O)nn4)[C@@H](O)[C@H](O)[C@H]3O)[C@H](O)[C@@H](O)[C@@H]2O)c(OCCCCCCCCCCCCCCCCCc2cn(CCCCN(OC)[C@@H]3O[C@H](CO)[C@@H](O)[C@H](O[C@H](C)C(=O)N[C@@H](C)C(=O)N[C@H](CCC(=O)O)C(N)=O)[C@H]3NC(C)=O)nn2)c1,Activity,[4],Active
same,Activity,[5],Active
same,Activity,[6],Active
same,Activity,[7],Active
same,Activity,[8],Active
same,Activity,[9],Toxic
same,Activity,[10],Non-Toxic
same,Activity,[11],Active
same,Activity,[12],Active
CCCCCCCCCCCCCCCCCCCCCC(=O)OC[C@@H]1O[C@H](O[C@H]2O[C@H](COC(=O)CCCCCCCCCCCCCCCCCCCCC)[C@@H](O)[C@H](O)[C@H]2O)[C@@H](O)[C@H](O)[C@H]1O,Activity,[11],inactive
CCCCCCCCCCCCCCCCCCOc1ccc(C(=O)OC[C@H]2O[C@H](O[C@H]3O[C@H](COC(=O)c4ccc(OCCCCCCCCCCCCCCCCCC)cc4)[C@@H](O)[C@H](O)[C@H]3O)[C@H](O)[C@@H](O)[C@@H]2O)cc1,Activity,[13],Active
same,Activity,[14],Active
same,Activity,[15],inactive
same,Activity,[16],Active
same,Activity,[8],Active
same,Activity,[17],Active
same,Activity,[18],inactive
same,Activity,[11],inactive
CC(=O)N[C@@H]1[C@@H](O[C@H](C)C(=O)N[C@@H](C)C(=O)N[C@H](CCC(=O)O)C(N)=O)[C@H](O)[C@@H](CO)O[C@H]1O [MURAMYL DIPEPTIDE],Activity,[19],Active
same,Activity,[20],Active
same,Activity,[21],Active
same,Activity,[22],Toxic
same,Activity,[23],Active
same,Activity,[24],inactive
same,Activity,[25],Active
same,Activity,[26],Active
CCCCOC(=O)[C@@H](CCC(N)=O)NC(=O)[C@H](C)NC(=O)[C@@H](C)O[C@H]1[C@H](O)[C@@H](CO)OC(O)[C@@H]1NC(C)=O (some centres undefined),Activity,[23],inactive
CON(CCCn1cc(CCCCCCCCCCCCCCCCCOc2ccc(C(=O)OC[C@H]3OC(O[C@H]4O[C@H](COC(=O)c5ccc(OCCCCCCCCCCCCCCCCCc6cn(CCCN(OC)[C@H]7O[C@@H](CO)[C@H](O)[C@@H](O[C@H](C)C(=O)N[C@@H](C)C(=O)N[C@H](CCC(=O)O)C(N)=O)[C@@H]7NC(C)=O)nn6)cc5)[C@@H](O)[C@H](O)[C@H]4O)[C@H](O)[C@@H](O)[C@@H]3O)cc2)nn1)[C@@H]1O[C@@H](CO)[C@H](O)[C@@H](O[C@H](C)C(=O)N[C@@H](C)C(=O)N[C@H](CCC(=O)O)C(N)=O)[C@@H]1NC(C)=O (some centres undefined),Activity,[4],Active
same,Activity,[5],Active
same,half-life,[27],1 h
same,t1/2,[28],1 yr
same,half-life,[29],60 h
same,Activity,[7],Active
same,Activity,[8],Active
same,Activity,[30],Active
same,Activity,[10],Non-Toxic
same,Activity,[11],Active
same,Activity,[12],Active
CONCCCn1cc(CCCCCCCCCCCCCCCCCOc2ccc(C(=O)OC[C@H]3O[C@H](O[C@H]4O[C@H](COC(=O)c5ccc(OCCCCCCCCCCCCCCCCCc6cn(CCCNOC)nn6)cc5)[C@@H](O)[C@H](O)[C@H]4O)[C@H](O)[C@@H](O)[C@@H]3O)cc2)nn1,Activity,[8],Active
CCCCCCCCCCCCCCCCCCOc1ccc(C(=O)OC[C@H]2O[C@H](O[C@H]3O[C@H](COC(=O)c4ccc(OCCCCCCCCCCCCCCCCCC)cc4OCCCCCCCCCCCCCCCCCC)[C@@H](O)[C@H](O)[C@H]3O)[C@H](O)[C@@H](O)[C@@H]2O)c(OCCCCCCCCCCCCCCCCCC)c1,Activity,[13],Active
same,Activity,[31],Active
same,Activity,[16],inactive
same,Activity,[8],Active
same,Activity,[32],Toxic
same,Activity,[11],inactive
N[C@H](CCC[C@H](NC(=O)CC[C@@H](N)C(=O)O)C(=O)O)C(=O)O,Activity,[33],inactive
